Measured values reported in US20130199313A1, “METHOD FOR EVALUATING THE SOLUBILITY OF A CRYSTALLINE SUBSTANCE IN A POLYMER” (Abbott GmbH & Co, KGW, priority 2010, published 2013).

Tests used:
[1] = Flory-Huggins fit of solute activity from annealing-method solubility data (interaction parameter χ); type: physicochemical; settings: polymer PVP K-12, Flory-Huggins fit
Protocol: The solute activity a1 of the drug in the saturated solution was calculated from the solubility of the crystalline drug in the polymer as follows:
In a1=(ΔHm/R)(1/Tm−1/T) (1)
where Tm is the melting point of the pure drug, ΔHm is its molar heat of melting, and T is the temperature at which the drug's solubility is measured (or its depressed melting point). […] According to the Flory-Huggins theory, the solute activity is given by
where v1 and v2 are the solute (drug) and solvent (polymer) volume fractions (v1+v2=1), x is the molar volume ratio of the polymer and the drug, and χ□ is the solute-solvent interaction parameter.
To the extent the reasonable fitting in FIG. 4 justifies the use of the Flory-Huggins model, the interaction parameter χ (equation 1) could be obtained.

[2] = Annealing/DSC method for solubility of a crystalline substance in a polymer; type: physicochemical; settings: 40 and 50% w/w IMC in PVP/VA, annealing vs scanning method
Protocol: Solute-polymer mixtures of desired concentrations were prepared by weighing the components. […] In a typical procedure, 0.5-1 g solute/polymer powder was milled at 10 Hz. Each cycle of milling was 2 min, followed by a 2 min cool-down. The cycle was repeated to achieve a desired milling time (2-60 min).
For annealing, 5-10 mg of sample was packed into a Tzero hermetic aluminum pan with three pin holes made in the lid to allow the escape of moisture and held isothermally at a desired temperature for as long as 600 minutes. Shorter annealing time was used if the system could apparently achieve equilibrium sooner.
Differential scanning calorimetry (DSC) was conducted using a TA Instruments DSC Q2000 at 10° C./min to determine whether residual crystals remain after annealing, i.e. whether a dissolution endotherm can be identified.

[3] = polymer PVP K-12; cited from earlier work

solute-solvent interaction parameter χ as determined with the method of the present invention [1]: −8.2 ± 0.6 | solution temperature below that obtained with the scanning method [2]: approximately 7 °C
Compound: COc1ccc2c(c1)c(CC(=O)O)c(C)n2C(=O)c1ccc(Cl)cc1 [IMC, indomethacin]
solute-solvent interaction parameter χ as determined by Marsac et al. [3]: −0.82
